The results in this text go back to US12577245B2, “Sulfonyl benzamide derivatives as Bcl-2 inhibitors” (ASCENTAGE PHARMA (SUZHOU) CO., LTD., priority 2021, dated 2026).

pIC50: −log10 of the molar value.

The target in the first assay is Bcl-2 G101V (Homo sapiens, UniProt P10415, G101V). As to the kind of experiment: Bcl-2 G101V inhibition, fluorescence polarization (Flu-BIM tracer) binding assay.
Settings: not given
For orientation: Polarisation of emitted light reports the rotation of a fluorescent probe.
`CC1(C)CCC(CN2CCN(c3ccc(C(=O)NS(=O)(=O)c4ccc(NC[C@H]5COCCO5)c([N+](=O)[O-])c4)c(Oc4cnc5[nH]ccc5c4)c3)CC2)=C(c2cc(C(=O)Nc3ccccc3)cs2)C1` [Example 17, (S)-5-(2-((4-(4-(((4-(((1,4-dioxan-2-yl)methyl)amino)-3-nitrophenyl)sulfonyl)carbamoyl)-3-((1H-pyrrolo[2,3-b]pyridin-5-yl)oxy)phenyl)piperazin-1-yl)methyl)-5,5-dimethylcyclohex-1-en-1-yl)-N-phenylthiophene-3-carboxamide] gave a pIC50 of 7.31.

Still in this assay, the particulars now being: FP; 20 nM Bcl2, 5 nM Flu-BIM, 1 h incubation; read-out: Bcl-2 G101V (FP).
On to `Cc1sccc1C1=C(CN2CCN(c3ccc(C(=O)NS(=O)(=O)c4ccc(NCC5CCOCC5)c([N+](=O)[O-])c4)c(Oc4cnc5[nH]ccc5c4)c3)CC2)CCC(C)(C)C1` [Example 1, 2-((1H-pyrrolo[2,3-b]pyridin-5-yl)oxy)-4-(4-((4,4-dimethyl-2-(2-methylthiophen-3-yl)cyclohex-1-en-1-yl)methyl)piperazin-1-yl)-N-((3-nitro-4-(((tetrahydro-2H-pyran-4-yl)methyl)amino)phenyl)sulfonyl)benzamide], for which the pIC50 was 7.48. The same measure, in the same setting: the same measure for `Cc1cscc1C1=C(CN2CCN(c3ccc(C(=O)NS(=O)(=O)c4ccc(NCC5CCOCC5)c([N+](=O)[O-])c4)c(Oc4cnc5[nH]ccc5c4)c3)CC2)CCC(C)(C)C1` [Example 2, 2-((1H-pyrrolo[2,3-b]pyridin-5-yl)oxy)-4-(4-((4,4-dimethyl-2-(4-methylthiophen-3-yl)cyclohex-1-en-1-yl)methyl)piperazin-1-yl)-N-((3-nitro-4-(((tetrahydro-2H-pyran-4-yl)methyl)amino)phenyl)sulfonyl)benzamide]: 7.49.

In the case of `CC1(C)CCC(CN2CCN(c3ccc(C(=O)NS(=O)(=O)c4ccc(NCC5CCOCC5)c([N+](=O)[O-])c4)c(Oc4cnc5[nH]ccc5c4)c3)CC2)=C(c2csc(C(F)(F)F)c2)C1` [Example 3, 2-((1H-pyrrolo[2,3-b]pyridin-5-yl)oxy)-4-(4-((4,4-dimethyl-2-(5-(trifluoromethyl)thiophen-3-yl)cyclohex-1-en-1-yl)methyl)piperazin-1-yl)-N-((3-nitro-4-(((tetrahydro-2H-pyran-4-yl)methyl)amino)phenyl)sulfonyl)benzamide], the pIC50 is 7.34. The same measure, in the same setting: the same measure for `Cc1ccc(C2=C(CN3CCN(c4ccc(C(=O)NS(=O)(=O)c5ccc(NCC6CCOCC6)c([N+](=O)[O-])c5)c(Oc5cnc6[nH]ccc6c5)c4)CC3)CCC(C)(C)C2)s1` [Example 6, 2-((1H-pyrrolo[2,3-b]pyridin-5-yl)oxy)-4-(4-((4,4-dimethyl-2-(5-methylthiophen-2-yl)cyclohex-1-en-1-yl)methyl)piperazin-1-yl)-N-((3-nitro-4-(((tetrahydro-2H-pyran-4-yl)methyl)amino)phenyl)sulfonyl)benzamide]: 7.47; for `CC(C)c1csc(C2=C(CN3CCN(c4ccc(C(=O)NS(=O)(=O)c5ccc(NCC6CCOCC6)c([N+](=O)[O-])c5)c(Oc5cnc6[nH]ccc6c5)c4)CC3)CCC(C)(C)C2)c1` [Example 8, 2-((1H-pyrrolo[2,3-b]pyridin-5-yl)oxy)-4-(4-((2-(4-isopropylthiophen-2-yl)-4,4-dimethylcyclohex-1-en-1-yl)methyl)piperazin-1-yl)-N-((3-nitro-4-(((tetrahydro-2H-pyran-4-yl)methyl)amino)phenyl)sulfonyl)benzamide]: 7.51; for `CC(C)c1csc(C2=C(CN3CCN(c4ccc(C(=O)NS(=O)(=O)c5ccc(NC[C@H]6COCCO6)c([N+](=O)[O-])c5)c(Oc5cnc6[nH]ccc6c5)c4)CC3)CCC(C)(C)C2)c1` [Example 10, (S)—N-((4-(((1,4-dioxan-2-yl)methyl)amino)-3-nitrophenyl)sulfonyl)-2-((1H-pyrrolo[2,3-b]pyridin-5-yl)oxy)-4-(4-((2-(4-isopropylthiophen-2-yl)-4,4-dimethylcyclohex-1-en-1-yl)methyl)piperazin-1-yl)benzamide]: 7.56. Take `CC(C)c1sccc1C1=C(CN2CCN(c3ccc(C(=O)NS(=O)(=O)c4ccc(NCC5CCOCC5)c([N+](=O)[O-])c4)c(Oc4cnc5[nH]ccc5c4)c3)CC2)CCC(C)(C)C1` [Example 11, 2-((1H-pyrrolo[2,3-b]pyridin-5-yl)oxy)-4-(4-((2-(2-isopropylthiophen-3-yl)-4,4-dimethylcyclohex-1-en-1-yl)-methyl)piperazin-1-yl)-N-((3-nitro-4-(((tetrahydro-2H-pyran-4-yl)methyl)amino)-phenyl)sulfonyl)benzamide]: the pIC50 is 7.43.

For `CC1(C)CCC(CN2CCN(c3ccc(C(=O)NS(=O)(=O)c4ccc(NC[C@H]5COCCO5)c([N+](=O)[O-])c4)c(Oc4cnc5[nH]ccc5c4)c3)CC2)=C(c2cc3c(s2)CCN(c2ccc(F)cc2)C3)C1` [Example 15, (S)—N-((4-(((1,4-dioxan-2-yl)methyl)amino)-3-nitrophenyl)sulfonyl)-2-((1H-pyrrolo[2,3-b]pyridin-5-yl)oxy)-4-(4-((2-(5-(4-fluorophenyl)-4,5,6,7-tetrahydrothieno[3,2-c]pyridin-2-yl)-4,4-dimethylcyclohex-1-en-1-yl)methyl)piperazin-1-yl)benzamide], the pIC50 is 7.19.

For `CC1(C)CCC(CN2CCN(c3ccc(C(=O)NS(=O)(=O)c4ccc(NC[C@H]5CC[C@](C)(O)CC5)c([N+](=O)[O-])c4)c(Oc4cnc5[nH]ccc5c4)c3)CC2)=C(c2cc3c(s2)CCN(c2ccc(F)cc2)C3)C1` [Example 16, 2-((1H-pyrrolo[2,3-b]pyridin-5-yl)oxy)-4-(4-((2-(5-(4-fluorophenyl)-4,5,6,7-tetrahydrothieno[3,2-c]pyridin-2-yl)-4,4-dimethylcyclohex-1-en-1-yl)methyl)piperazin-1-yl)-N-((4-((((1r,4r)-4-hydroxy-4-methylcyclohexyl)methyl)amino)-3-nitrophenyl)sulfonyl)benzamide], the pIC50 was 7.02.

For `CC1(C)CCC(CN2CCN(c3ccc(C(=O)NS(=O)(=O)c4ccc(NC[C@H]5COCCO5)c([N+](=O)[O-])c4)c(Oc4cnc5[nH]ccc5c4)c3)CC2)=C(c2cc(NC(=O)c3ccccc3)cs2)C1` [Example 18, (S)—N-((4-(((1,4-dioxan-2-yl)methyl)amino)-3-nitrophenyl)sulfonyl)-2-((1H-pyrrolo[2,3-b]pyridin-5-yl)oxy)-4-(4-((2-(4-benzamidothiophen-2-yl)-4,4-dimethylcyclohex-1-en-1-yl)methyl)piperazin-1-yl)benzamide], the pIC50 is 7.18. On the same count and under the same terms, the same measure for `CC1(C)CCC(CN2CCN(c3ccc(C(=O)NS(=O)(=O)c4ccc(NC[C@H]5COCCO5)c([N+](=O)[O-])c4)c(Oc4cnc5[nH]ccc5c4)c3)CC2)=C(c2cc(Nc3ncccn3)cs2)C1` [Example 19, (S)—N-((4-(((1,4-dioxan-2-yl)methyl)amino)-3-nitrophenyl)sulfonyl)-2-((1H-pyrrolo[2,3-b]pyridin-5-yl)oxy)-4-(4-((4,4-dimethyl-2-(4-(pyrimidin-2-ylamino)thiophen-2-yl)cyclohex-1-en-1-yl)methyl)piperazin-1-yl)benzamide]: 7.39. `CC1(C)CCC(CN2CCN(c3ccc(C(=O)NS(=O)(=O)c4ccc(NCC5CCOCC5)c([N+](=O)[O-])c4)c(Oc4cnc5[nH]ccc5c4)c3)CC2)=C(c2csc(CN3CCOCC3)c2)C1` [Example 21, 2-((1H-pyrrolo[2,3-b]pyridin-5-yl)oxy)-4-(4-((4,4-dimethyl-2-(5-(morpholinomethyl)thiophen-3-yl)cyclohex-1-en-1-yl)methyl)piperazin-1-yl)-N-((3-nitro-4-(((tetrahydro-2H-pyran-4-yl)methyl)amino)phenyl)sulfonyl)benzamide]: the pIC50 is 7.19. For the molecule `CC1(C)CCC(CN2CCN(c3ccc(C(=O)NS(=O)(=O)c4ccc(NC[C@H]5COCCO5)c([N+](=O)[O-])c4)c(Oc4cnc5[nH]ccc5c4)c3)CC2)=C(c2cc(CN3CCOCC3)cs2)C1` [Example 22, (S)—N-((4-(((1,4-dioxan-2-yl)methyl)amino)-3-nitrophenyl)sulfonyl)-2-((1H-pyrrolo[2,3-b]pyridin-5-yl)oxy)-4-(4-((4,4-dimethyl-2-(4-(morpholinomethyl)thiophen-2-yl)cyclohex-1-en-1-yl)methyl)piperazin-1-yl)benzamide], the pIC50 was 7.37. On the same count and under the same terms, the same measure for `CC1(C)CCC(CN2CCN(c3ccc(C(=O)NS(=O)(=O)c4ccc(NC[C@H]5CC[C@@](C)(O)CC5)c([N+](=O)[O-])c4)c(Oc4cnc5[nH]ccc5c4)c3)CC2)=C(c2cc(CN3CCOCC3)cs2)C1` [Example 23, 2-((1H-pyrrolo[2,3-b]pyridin-5-yl)oxy)-4-(4-((4,4-dimethyl-2-(4-(morpholinomethyl)thiophen-2-yl)cyclohex-1-en-1-yl)methyl)piperazin-1-yl)-N-((4-((((1s,4s)-4-hydroxy-4-methylcyclohexyl)methyl)amino)-3-nitrophenyl)sulfonyl)benzamide]: 7.55; for `CC1(C)CCC(CN2CCN(c3ccc(C(=O)NS(=O)(=O)c4ccc(NC[C@H]5CC[C@](C)(O)CC5)c([N+](=O)[O-])c4)c(Oc4cnc5[nH]ccc5c4)c3)CC2)=C(c2cc(CN3CCOCC3)cs2)C1` [Example 24, 2-((1H-pyrrolo[2,3-b]pyridin-5-yl)oxy)-4-(4-((4,4-dimethyl-2-(4-(morpholinomethyl)thiophen-2-yl)cyclohex-1-en-1-yl)methyl)piperazin-1-yl)-N-((4-((((1r,4r)-4-hydroxy-4-methylcyclohexyl)methyl)amino)-3-nitrophenyl)sulfonyl)benzamide]: 7.52; for `CC1(C)CCC(CN2CCN(c3ccc(C(=O)NS(=O)(=O)c4ccc(NCC5CCOCC5)c([N+](=O)[O-])c4)c(Oc4cnc5[nH]ccc5c4)c3)CC2)=C(c2ccsc2CN2CCOCC2)C1` [Example 25, 2-((1H-pyrrolo[2,3-b]pyridin-5-yl)oxy)-4-(4-((4,4-dimethyl-2-(2-(morpholinomethyl)thiophen-3-yl)cyclohex-1-en-1-yl)methyl)piperazin-1-yl)-N-((3-nitro-4-(((tetrahydro-2H-pyran-4-yl)methyl)amino)phenyl)sulfonyl)benzamide]: 7.41.
